Values joined by “and” are separate entries in the source; they are usually repeats but may differ in a detail not shown here. Equal entries are not always repeated.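 Protocol summary: plate cells (96-well), add compound at 5 concentrations, incubate 48 h, interpolate endpoints linearly. GI50 marks 50% less growth. TGI: total growth inhibition.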 Bounds are passed on as bounds.

Among the data in PubChem BioAssay (NCI) are TGI and GI50 values, retold here.

Among the test systems are RXF 393 renal; DU-145 prostate; MDA-MB-231 breast; HCT-116 colon; BT-549 breast; RPMI-8226 leukemia; SK-MEL-2 melanoma; M14 melanoma; MCF7 breast; NCI-H522 lung; PC-3 prostate; SK-MEL-28 melanoma; OVCAR-5 ovarian; NCI-H460 lung; HL-60(TB) leukemia; SR leukemia.
Assay in all cases: NCI anticancer screen, dose series, 48 h

In the case of `O=C1NC(=S)N/C1=C\c1cccs1`, the TGI in the test on RXF 393 renal, in the test with DU-145 prostate, with MDA-MB-231 breast, in the test with HCT-116 colon, in the test with BT-549 breast and with RPMI-8226 leukemia was more than 100 µM throughout. Besides, the TGI in the test on SK-MEL-2 melanoma, in the test on M14 melanoma, with MCF7 breast, in the test on NCI-H522 lung, in the test on PC-3 prostate and with SK-MEL-28 melanoma was more than 100 µM each time. The same molecule showed a TGI with OVCAR-5 ovarian of more than 100 µM.

Consider `OC(CNc1ccccn1)c1ccccc1` (centres undefined), for which the TGI in the test with RXF 393 renal, with DU-145 prostate, in the test with MDA-MB-231 breast, in the test with NCI-H460 lung, with HCT-116 colon and in the test with BT-549 breast was more than 100 µM throughout. Further, the TGI with RPMI-8226 leukemia, with SK-MEL-2 melanoma, with M14 melanoma, in the test with MCF7 breast, in the test with NCI-H522 lung and in the test on PC-3 prostate was more than 100 µM throughout. Moreover, the TGI in the test with SK-MEL-28 melanoma, with OVCAR-5 ovarian and with HL-60(TB) leukemia was more than 100 µM in each case.

Turning to `CNC1(c2cc3ccccc3s2)CCCCC1`, the TGI in the test with RXF 393 renal is 67.1 µM; in the test on DU-145 prostate, more than 100 µM; in the test with MDA-MB-231 breast, 71.8 µM; in the test with NCI-H460 lung, 35.4 µM; in the test on SR leukemia it was 67.3 µM; with HCT-116 colon, more than 100 µM. Further, the TGI is more than 100 µM in the test on BT-549 breast; 35.7 µM with M14 melanoma; 90.5 µM in the test on MCF7 breast; 29.1 µM with NCI-H522 lung; 55.5 µM in the test with PC-3 prostate; 95.7 µM in the test on OVCAR-5 ovarian.

In the case of `CCOC(=O)Nc1cc2c(c(N)n1)N=C(c1ccc(OC)cc1)CN2`, the TGI is 33.3 µM in the test with DU-145 prostate; 0.392 µM and 0.0787 µM in the test on MDA-MB-231 breast; 0.256 µM in the test with NCI-H460 lung; 1.31 µM with HCT-116 colon; 80.5 µM with BT-549 breast; 0.0838 µM in the test on SK-MEL-2 melanoma. Moreover, the TGI with M14 melanoma is 19.1 µM; in the test with MCF7 breast, more than 100 µM; with NCI-H522 lung it was 0.00636 µM; in the test on PC-3 prostate, 0.0521 µM and 0.48 µM; in the test with OVCAR-5 ovarian it was 21.8 µM; in the test on HL-60(TB) leukemia, 0.00595 µM. Moreover, the GI50 is 0.00386 µM in the test on MDA-MB-231 breast, 0.012 µM with NCI-H460 lung, 0.0264 µM with MCF7 breast and 0.00142 µM in the test with PC-3 prostate.

For `Clc1ccc(CCN(CCc2ccc(Cl)c(Cl)c2)CCN2CCCC2)cc1Cl`, the TGI with RXF 393 renal worked out at 3.33 µM; with DU-145 prostate, 4.3 µM; with MDA-MB-231 breast it was 2.91 µM; in the test with NCI-H460 lung it was 3.34 µM; in the test on BT-549 breast, 3.65 µM; in the test on RPMI-8226 leukemia, 5.38 µM. Besides, the TGI was determined as 3.04 µM in the test with SK-MEL-2 melanoma; 3.1 µM in the test on M14 melanoma; 2.88 µM with MCF7 breast; 3.2 µM in the test on NCI-H522 lung; 2.91 µM in the test on PC-3 prostate; 3.23 µM in the test with OVCAR-5 ovarian. The TGI with HL-60(TB) leukemia came to 3.25 µM.

`CC1C2CC(C(S(=O)(=O)O)C2=O)C1(C)C` (centres undefined): the TGI in the test with RXF 393 renal, in the test on DU-145 prostate, in the test with MDA-MB-231 breast, in the test with NCI-H460 lung, with SR leukemia and with HCT-116 colon was more than 100 µM throughout. Besides, the TGI with BT-549 breast, with M14 melanoma, with MCF7 breast, in the test on NCI-H522 lung, with PC-3 prostate and in the test on SK-MEL-28 melanoma was more than 100 µM throughout. For the same molecule, the TGI in the test on OVCAR-5 ovarian and in the test with HL-60(TB) leukemia was more than 100 µM in each case.

Regarding `COc1ccc2nc(N/N=C/c3sccc3C)cc(C)c2c1`, the TGI in the test on RXF 393 renal amounted to 62.6 µM; in the test with DU-145 prostate, 44.5 µM; in the test with MDA-MB-231 breast it was 16.1 µM; in the test on NCI-H460 lung it was 28.2 µM; in the test on HCT-116 colon, 23.8 µM; in the test on BT-549 breast, 32.2 µM. Moreover, the TGI in the test on RPMI-8226 leukemia turned out to be 45.3 µM; in the test on SK-MEL-2 melanoma, 63.1 µM; in the test with M14 melanoma, 25.3 µM; in the test on MCF7 breast, 55.5 µM; in the test with PC-3 prostate it was 38.7 µM; in the test with SK-MEL-28 melanoma it was 50.5 µM. The TGI was determined as 61.3 µM in the test on OVCAR-5 ovarian and 47.6 µM with HL-60(TB) leukemia.

Turning to `O=S(=O)(O)c1ccc(N=Nc2ccc3c(S(=O)(=O)O)cccc3c2O)c2ccccc12`, the TGI in the test on RXF 393 renal, in the test with DU-145 prostate, with MDA-MB-231 breast, with HCT-116 colon, in the test with BT-549 breast and in the test on RPMI-8226 leukemia was more than 100 µM each time. The TGI in the test on SK-MEL-2 melanoma, in the test with M14 melanoma, in the test on MCF7 breast, in the test on NCI-H522 lung, with PC-3 prostate and in the test with SK-MEL-28 melanoma was more than 100 µM each time. The molecule also showed a TGI with OVCAR-5 ovarian of more than 100 µM.

For the molecule `CNc1ncccc1Nc1cc(=O)n2c3cccnc3n(C)c2c1`, the TGI with RXF 393 renal was 80.8 µM; in the test on DU-145 prostate it was more than 100 µM; in the test with MDA-MB-231 breast it was more than 100 µM; with NCI-H460 lung, more than 100 µM; in the test on SR leukemia, more than 100 µM; with HCT-116 colon it was more than 100 µM. The TGI in the test on BT-549 breast, with RPMI-8226 leukemia, with M14 melanoma, in the test with MCF7 breast, in the test with NCI-H522 lung and with PC-3 prostate was more than 100 µM in each case. Besides, the TGI in the test on SK-MEL-28 melanoma and in the test on OVCAR-5 ovarian was more than 100 µM throughout.

With `COc1ccc2c(c1)CN1C(=N2)CSC1c1cccc(Br)c1` (centres undefined), the TGI in the test on RXF 393 renal is 55.9 µM; in the test on MDA-MB-231 breast, more than 100 µM; in the test with NCI-H460 lung, more than 100 µM; in the test with SR leukemia it was more than 100 µM; in the test with HCT-116 colon, more than 100 µM; in the test with BT-549 breast, more than 100 µM. The TGI in the test on RPMI-8226 leukemia is 35.2 µM; in the test on SK-MEL-2 melanoma, more than 100 µM; in the test on M14 melanoma, more than 100 µM; with MCF7 breast, more than 100 µM; in the test with NCI-H522 lung, more than 100 µM; with PC-3 prostate, more than 100 µM. Further, the values for the TGI in the test on SK-MEL-28 melanoma, in the test with OVCAR-5 ovarian and in the test with HL-60(TB) leukemia were more than 100 µM, more than 100 µM and 22.3 µM, respectively.
